# Results: patent publication US20240082282A1 (priority 2020, published 2024)
# Assays:
# [1] = system: E. coli ΔTolC+pBAD30 bmpD; test: MIC of E. coli overexpressing bmpD; details: arabinose induced
# [2] = system: E. coli ΔtolC (no efflux); test: MIC of E. coli mutant strains
# E. coli WT BW25113 = test: MIC of E. coli mutant strains
# HEK293 = details: HEK293, alamar blue, 72 hours
# [3] = system: Leptospira interrogans ATCC BAA-1198
# B. burgdorferi B31 KLEX2 = test: MIC of hygromycin A resistant mutant; assay type: cell-based
# [4] = system: Brachyspira (formerly Treponema) hyodysenteriae; details: report of a group from Japan; cited from earlier work
# [5] = system: B. burgdorferi hygromycin A resistant mutant KLEx2; test: RNAseq of hygromycin A treated vs untreated cells; assay type: cell-based; details: for log2 Fold Change: 4 ug/ml hygromycin A vs untreated
# B. burgdorferi = test: Efficacy of hygromycin A in Peromyscus mice; assay type: in vivo; details: Peromyscus leucopus, subcutaneous, twice a day, 5 days
# Description: Mice were sacrificed on Day 11 and the heart, ankle, and ear were taken for culture. Cultures were monitored by darkfield microscopy for 4 weeks or until positive.
substance,measurement,setting,value
Hygromycin A,Reduction of E. coli MIC on inducing expression of BmpD,[1],8 fold
same,MIC,"[2]; E. coli ΔtolC, no efflux",16 µg/mL
same,Decrease in MIC on addition of adenosine to E. coli,"[2]; adenosine 2.5-2500 μM, concentration-dependent",up to 8 fold
same,MIC,E. coli WT BW25113,512 µg/mL
same,IC50,HEK293,>512 µg/mL
same,Minimum inhibitory concentration (MIC),[3],4 µg/mL
same,MIC,"B. burgdorferi B31 KLEX2; B. burgdorferi B31 KLEX2, stable hygromycin A resistance",4 µg/mL
same,MIC increase as compared to wild type parent strain,B. burgdorferi B31 KLEX2; B. burgdorferi B31 KLEX2 vs parent,16 fold
same,MIC,B. burgdorferi B31 KLEX2; Hygromycin A resistant B. burgdorferi (HygR) (FIG. 7B),4 µg/mL
same,Treatment of pig dysentery,[4],showed efficacy
same,log2 Fold Change,[5]; gene 16S,−1.80
same,log2 Fold Change,[5]; gene BBC10,−8.07
same,log2 Fold Change,[5]; gene BBC11,−7.92
same,log2 Fold Change,[5]; gene BB_0183,−1.46
same,log2 Fold Change,[5]; gene BB_0206,1.07
same,log2 Fold Change,[5]; gene BB_0212,−1.15
same,log2 Fold Change,[5]; gene BB_0731,−1.01
same,log2 Fold Change,[5]; gene BB_0758,1.32
same,log2 Fold Change,[5]; gene BB_0839,−1.15
same,log2 Fold Change,[5]; gene BB_0844,−1.41
same,log2 Fold Change,[5]; gene BB_A07,−1.23
same,log2 Fold Change,[5]; gene BB_A34,1.06
same,log2 Fold Change,[5]; gene BB_B13,1.12
same,log2 Fold Change,[5]; gene BB_H41,−2.37
same,log2 Fold Change,[5]; gene BB_I18,1.16
same,log2 Fold Change,[5]; gene BB_J11,1.02
same,log2 Fold Change,[5]; gene BB_J17,1.43
same,log2 Fold Change,[5]; gene BB_J27,1.18
same,log2 Fold Change,[5]; gene BB_J31,1.22
same,log2 Fold Change,[5]; gene BB_J45,1.22
same,log2 Fold Change,[5]; gene BB_K42,−1.05
same,log2 Fold Change,[5]; gene BB_L03,1.06
same,log2 Fold Change,[5]; gene BB_N03,1.15
same,log2 Fold Change,[5]; gene BB_N04,1.06
same,log2 Fold Change,[5]; gene BB_O18,−1.04
same,log2 Fold Change,[5]; gene BB_P03,1.06
same,log2 Fold Change,[5]; gene BB_U05,−1.14
same,log2 Fold Change,[5]; gene bmpD,−1.67
same,log2 Fold Change,[5]; gene glpK,−1.62
same,log2 Fold Change,[5]; gene tRNA-Cys-1,−1.17
same,Decrease in the expression of bmpD,[5]; transcriptome of hygromycin A treated KLEX2 cells vs untreated,2.78 fold
same,Culture positive (%),B. burgdorferi; total daily dose 100 mg/kg/day,100%
same,Culture positive (%),B. burgdorferi; total daily dose 200 mg/kg/day,0%
